How the values were obtained:
Type in all cases: in vivo
[1] = tested on: barnyardgrass (Echinochloa crus-galli); assay: Test G Pre-Emergence Protocol; conditions: Echinochloa crus-galli, pre-emergence, 312 h, evaluated after 13 days
How it was run: (§1)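 Seeds were sown in standard soil and kept one day in a glasshouse (24/16° C day/night, 14 h light, 65% humidity), then sprayed with compound in acetone/water (50:50) containing 0.5% Tween 20 at 15.625, 62.5 or 250 g/ha. Damage was scored after 13 days (0 = none, 100 = total).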

[2] = tested on: corn (Zea mays); assay: Test G Pre-Emergence Protocol; conditions: Zea mays, pre-emergence, 312 h, evaluated after 13 days
How it was run: as §1

[3] = tested on: giant foxtail (Setaria faberi); assay: Test G Pre-Emergence Protocol; conditions: Setaria faberi, pre-emergence, 312 h, evaluated after 13 days
How it was run: as §1

[4] = tested on: ivy-leaved morning glory (Ipomoea hederacea); assay: Test G Pre-Emergence Protocol; conditions: Ipomoea, pre-emergence, 312 h, evaluated after 13 days
How it was run: as §1

[5] = tested on: redroot pigweed (Amaranthus retroflexus); assay: Test G Pre-Emergence Protocol; conditions: Amaranthus retroflexus, pre-emergence, 312 h, evaluated after 13 days
How it was run: as §1

[6] = tested on: velvetleaf (Abutilon theophrasti); assay: Test G Pre-Emergence Protocol; conditions: Abutilon theophrasti, pre-emergence, 312 h, evaluated after 13 days
How it was run: as §1

[7] = tested on: barnyardgrass (Echinochloa crus-galli); assay: Test G Post-Emergence Protocol; conditions: Echinochloa crus-galli, post-emergence, 312 h, read-out: Barnyardgrass damage rating
How it was run: (§2)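 Post-emergence herbicidal damage, scored visually 0–100 at 13 days. Application at 15.625, 62.5 or 250 g/ha onto 8-day-old plants grown under glasshouse control.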

[8] = tested on: corn (Zea mays); assay: Test G Post-Emergence Protocol; conditions: Zea mays, post-emergence, 312 h, read-out: Corn damage rating
How it was run: as §2

[9] = tested on: giant foxtail (Setaria faberi); assay: Test G Post-Emergence Protocol; conditions: Setaria faberi, post-emergence, 312 h, read-out: Foxtail, Giant damage rating
How it was run: as §2

[10] = tested on: ivy-leaved morning glory (Ipomoea hederacea); assay: Test G Post-Emergence Protocol; conditions: Ipomoea, post-emergence, 312 h, read-out: Morningglory, Ivy-leaved damage rating
How it was run: as §2

[11] = tested on: redroot pigweed (Amaranthus retroflexus); assay: Test G Post-Emergence Protocol; conditions: Amaranthus retroflexus, post-emergence, 312 h, read-out: Pigweed, Redroot damage rating
How it was run: as §2

[12] = tested on: velvetleaf (Abutilon theophrasti); assay: Test G Post-Emergence Protocol; conditions: Abutilon theophrasti, post-emergence, 312 h, read-out: Velvetleaf damage rating
How it was run: as §2

[13] = 15.625 g ai/ha, evaluated after 13 days (100=total damage to plant; 0=no damage to plant)
[14] = 62.5 g ai/ha, evaluated after 13 days, 100=total damage to plant, 0=no damage to plant
[15] = 250 g ai/ha, evaluated after 13 days, 100=total damage to plant, 0=no damage to plant

`CN1C[C@@H](c2ccc(C(F)(F)F)cc2)[C@H](C(=O)Nc2cnc(Cl)cn2)C1=O` (racemic) [Compound 1649] was tested, and the pest or weed control at 15.625 g/ha ([1]; 15.625 g ai/ha, read-out: Barnyardgrass damage rating (100=total damage to plant; 0=no damage to plant)) was 0%, the pest or weed control at 62.5 g/ha ([1]; 62.5 g ai/ha, 100=total damage to plant, 0=no damage to plant, read-out: Barnyardgrass damage rating) was 0% and the pest or weed control at 250 g/ha ([1]; 250 g ai/ha, read-out: Barnyardgrass damage rating (100=total damage to plant; 0=no damage to plant)) was 0%. It also gave a plant injury at 15.625 g/ha ([2]; 15.625 g ai/ha, read-out: Corn damage rating (100=total damage to plant; 0=no damage to plant)) of 0%, a plant injury at 62.5 g/ha ([2]; 62.5 g ai/ha, 100=total damage to plant, 0=no damage to plant, read-out: Corn damage rating) of 0% and a plant injury at 250 g/ha ([2]; 250 g ai/ha, read-out: Corn damage rating (100=total damage to plant; 0=no damage to plant)) of 0%. For the same compound, the pest or weed control at 15.625 g/ha ([3]; 15.625 g ai/ha, read-out: Foxtail, Giant damage rating (100=total damage to plant; 0=no damage to plant)) was 0%, the pest or weed control at 62.5 g/ha ([3]; 62.5 g ai/ha, 100=total damage to plant, 0=no damage to plant, read-out: Foxtail, Giant damage rating) was 10% and the pest or weed control at 250 g/ha ([3]; 250 g ai/ha, read-out: Foxtail, Giant damage rating (100=total damage to plant; 0=no damage to plant)) was 20%. The pest or weed control at 15.625 g/ha ([4]; 15.625 g ai/ha, read-out: Morningglory, Ivy-leaved damage rating (100=total damage to plant; 0=no damage to plant)) was 0%, the pest or weed control at 62.5 g/ha ([4]; 62.5 g ai/ha, 100=total damage to plant, 0=no damage to plant, read-out: Morningglory, Ivy-leaved damage rating) was 0% and the pest or weed control at 250 g/ha ([4]; 250 g ai/ha, read-out: Morningglory, Ivy-leaved damage rating (100=total damage to plant; 0=no damage to plant)) was 0%. The pest or weed control at 15.625 g/ha ([5]; 15.625 g ai/ha, read-out: Pigweed, Redroot damage rating (100=total damage to plant; 0=no damage to plant)) was 0%, the pest or weed control at 62.5 g/ha ([5]; 62.5 g ai/ha, 100=total damage to plant, 0=no damage to plant, read-out: Pigweed, Redroot damage rating) was 20% and the pest or weed control at 250 g/ha ([5]; 250 g ai/ha, read-out: Pigweed, Redroot damage rating (100=total damage to plant; 0=no damage to plant)) was 20%. The pest or weed control at 15.625 g/ha ([6]; 15.625 g ai/ha, read-out: Velvetleaf damage rating (100=total damage to plant; 0=no damage to plant)) was 0%, the pest or weed control at 62.5 g/ha ([6]; 62.5 g ai/ha, 100=total damage to plant, 0=no damage to plant, read-out: Velvetleaf damage rating) was 0% and the pest or weed control at 250 g/ha ([6]; 250 g ai/ha, read-out: Velvetleaf damage rating (100=total damage to plant; 0=no damage to plant)) was 0%. The pest or weed control at 15.625 g/ha [7, 13] was 0%, the pest or weed control at 62.5 g/ha [7, 14] was 0% and the pest or weed control at 250 g/ha [7, 15] was 20%. The plant injury at 15.625 g/ha [8, 13] was 0%, the plant injury at 62.5 g/ha [8, 14] was 0% and the plant injury at 250 g/ha [8, 15] was 0%. The pest or weed control at 15.625 g/ha [9, 13] was 0%, the pest or weed control at 62.5 g/ha [9, 14] was 0% and the pest or weed control at 250 g/ha [9, 15] was 60%. It also gave a pest or weed control at 15.625 g/ha [10, 13] of 0%, a pest or weed control at 62.5 g/ha [10, 14] of 0% and a pest or weed control at 250 g/ha [10, 15] of 0%. The pest or weed control at 15.625 g/ha [11, 13] was 0%, the pest or weed control at 62.5 g/ha [11, 14] was 0% and the pest or weed control at 250 g/ha [11, 15] was 40%. For the same compound, the pest or weed control at 15.625 g/ha [12, 13] was 0%, the pest or weed control at 62.5 g/ha [12, 14] was 0% and the pest or weed control at 250 g/ha [12, 15] was 0%.

Source: patent US12077503B2, “Substituted cyclic amides and their use as herbicides” (FMC CORPORATION, priority 2015, dated 2024)
